Measurements taken from patent publication US10392422B2, “Macrocyclic broad spectrum antibiotics” (priority 2014, dated 2019).
Values after ≈ are worked out from the molar mass of the structure shown. Like-named read-outs stand apart in the source and are kept apart here.

Legend:
Experiment in all cases: MIC, broth micro-dilution technique (CLSI)
MRSA COL (NRS100) = type: cell-based, Staphylococcus aureus; conditions: for MIC: Staphylococcus aureus, 22 h, read-out: MIC (μg/mL) (COL)
Procedure, shortened: (§1)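 CLSI broth microdilution in cation-adjusted Mueller Hinton broth with 0.002% v/v Tween-80. Compounds were serially 2-fold diluted over 10 concentrations from 64 μg/ml, or from 4 μg/mL in a modified protocol; inoculum at final OD600 0.0005, incubated 35° C for 22 hours.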

[1] = tested on: Escherichia coli MC4100 harboring the IMP4213; type: cell-based; conditions: for MIC: Escherichia coli, 22 h; for MIC (μg/mL) E. coli: Table 2 modified protocol: serial 2-fold dilutions starting from 4 μg/mL
Procedure, shortened: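 CLSI broth microdilution in cation-adjusted Mueller Hinton broth with 0.002% Tween-80. Ten 2-fold dilutions started from 64 μg/ml, or from 4 μg/mL in the modified protocol. Inoculum at final OD600 0.0005; MIC read after 22 h at 35 °C. E. coli strain carries imp4213 (increased outer-membrane permeability).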

[2] = tested on: Methicillin Resistant Staphylococcus aureus strain USA 300 (NRS384); type: cell-based; conditions: for MIC: Staphylococcus aureus, 22 h, read-out: MIC (μg/mL) S. aureus
Procedure, shortened: as §1

[3] = Table 1 protocol: serial 2-fold dilutions starting from 64 μg/ml, 35° C., 22 hours
[4] = read-out: MIC (μg/mL) E. coli, Table 1 protocol: serial 2-fold dilutions starting from 64 μg/ml, 35° C., 22 hours
[5] = Table 2 modified protocol: serial 2-fold dilutions starting from 4 μg/mL, 35° C., 22 hours
[6] = read-out: MIC (μg/mL) E. coli, Table 2 modified protocol: serial 2-fold dilutions starting from 4 μg/mL, 35° C., 22 hours

Row | SMILES | MIC (MRSA COL (NRS100); [3]) [µg/mL] | MIC [1, 4] [µg/mL] | MIC [2, 3] [µg/mL] | MIC (MRSA COL (NRS100)) [µg/mL] | MIC [2] [µg/mL] | other results
1 | C[C@@H]1NC(=O)[C@@H](N(C)C(=O)[C@H](CCCCN)NC(=O)c2ccc(-c3ccc(Cl)cc3)cc2)c2ccc(O)c(c2)-c2cc(ccc2O)C[C@@H](C(=O)NCC(=O)C(=O)O)NC1=O [Compound 239] | 4 (≈ 4.75 µM) | > 4 | > 4 | – | – | –
2 | CC(NC(=O)[C@@H]1Cc2ccc(O)c(c2)-c2cc(ccc2O)[C@H](N(C)C(=O)[C@H](CCCCN)NC(=O)c2ccc(-c3ccc(Cl)cc3)cc2)C(=O)N[C@@H](C)C(=O)N1)C(=O)Cn1cc(C(N)=O)nn1 (stereo partly drawn) [Compound 246] | – | – | – | – | – | MIC (MRSA COL (NRS100); [5]): 3 µg/mL (≈ 3.21 µM); MIC [1, 6]: > 4 µg/mL; MIC [2, 5]: 4 µg/mL (≈ 4.28 µM)
3 | CCCCCCCCCCNCCC(=O)N[C@@H](CCCCN)C(=O)N(C)[C@@H]1C(=O)N[C@@H](C)C(=O)N[C@H](C(=O)N[C@@H](C)C(=O)c2nnn[nH]2)Cc2ccc(OCCN)c(c2)-c2cc1ccc2OCCN.O=CO [Compound 271] | – | – | – | – | – | MIC (μg/mL) (COL) (MRSA COL (NRS100); [5]): 0.016 µg/mL; MIC (μg/mL) E. coli ([1]; 35° C., 22 hours): 4 µg/mL; MIC (μg/mL) S. aureus [2, 5]: 0.047 µg/mL
4 | CCCCCCCCCCNCCS(=O)(=O)N[C@@H](CCCCN)C(=O)N(C)[C@@H]1C(=O)N[C@@H](C)C(=O)N[C@H](C(=O)N[C@@H](C)C(C)=O)Cc2ccc(O)c(c2)-c2cc1ccc2O [Compound 163] | 0.11 (≈ 0.128 µM) | 16 (≈ 18.6 µM) | 0.13 (≈ 0.151 µM) | – | – | –
5 | CCCCCCCCCCNCCC(=O)N[C@@H](CCCCN)C(=O)N(C)[C@@H]1C(=O)N[C@@H](C)C(=O)N[C@H](C(=O)O)Cc2ccc(O)c(c2)-c2cc1ccc2O [Compound 110] | – | 64 (≈ 85 µM) | – | 8 (≈ 10.6 µM) | 29 (≈ 38.5 µM) | –
6 | C[C@@H]1NC(=O)[C@@H](N(C)C(=O)[C@H](CCCCN)NC(=O)c2ccc(-c3ccc(Cl)cc3)cc2)c2ccc(O)c(c2)-c2cc(ccc2O)C[C@@H](C(=O)N[C@@H](C)C(=O)N(C)[C@@H](C)C(N)=O)NC1=O [Compound 183] | 2.4 (≈ 2.63 µM) | 32 (≈ 35.1 µM) | 8 (≈ 8.78 µM) | – | – | –
7 | CCCCCCCCCCCCCC(=O)N(C)[C@@H]1C(=O)N[C@@H](C)C(=O)N[C@H](C(=O)O)Cc2ccc(OCCN)c(c2)-c2cc1ccc2OCCN [Compound 291] | – | 8 (≈ 11.3 µM) | – | 4 (≈ 5.63 µM) | 8 (≈ 11.3 µM) | –
8 | C[C@@H]1NC(=O)[C@@H](N(C)C(=O)[C@H](CCCCN)NC(=O)c2ccc(-c3ccc(C(C)(C)C)cc3)cc2)c2ccc(OCCN)c(c2)-c2cc(ccc2OCCN)C[C@@H](C(=O)O)NC1=O [Compound 278] | – | – | – | 0.094 (≈ 0.109 µM) | 0.25 (≈ 0.289 µM) | MIC [1, 6]: 0.031 µg/mL (≈ 0.0359 µM)
9 | C[C@H](NC(=O)[C@@H]1Cc2ccc(O)c(c2)-c2cc(ccc2O)[C@H](N(C)C(=O)[C@H](CCCCN)NC(=O)c2ccc(-c3ccc(Cl)cc3)cc2)C(=O)N[C@@H](C)C(=O)N1)C(=O)CO [Compound 124] | – | 16 (≈ 19 µM) | – | 0.5 (≈ 0.594 µM) | 1 (≈ 1.19 µM) | –
10 | C[C@@H]1NC(=O)[C@@H](N(C)C(=O)[C@H](CCCCN)NC(=O)c2ccc(-c3ccc(Cl)cc3)cc2)c2ccc(O)c(c2)-c2cc(ccc2O)C[C@@H](C(=O)N[C@@H](C)C(=O)c2ccccn2)NC1=O [Compound 250] | 11 (≈ 12.4 µM) | 64 (≈ 72 µM) | 64 (≈ 72 µM) | – | – | –
11 | CCCCCCCCCCNCCS(=O)(=O)N[C@@H](CCCN)C(=O)N(C)[C@@H]1C(=O)N[C@@H](C)C(=O)N[C@H](C(=O)N[C@@H](C)C(C)=O)Cc2ccc(O)c(c2)-c2cc1ccc2O [Compound 219] | – | > 64 | – | 0.13 (≈ 0.154 µM) | 0.35 (≈ 0.415 µM) | –
12 | C[C@@H]1NC(=O)[C@@H](N(C)C(=O)[C@H](CCCCN)NC(=O)c2ccc(-c3ccc(Cl)cc3)cc2)c2ccc(O)c(c2)-c2cc(ccc2O)C[C@@H](C(=O)N[C@@H](C)C(=O)c2c[nH]cn2)NC1=O [Compound 229] | 1 (≈ 1.14 µM) | 24 (≈ 27.4 µM) | 4 (≈ 4.56 µM) | – | – | –
13 | CCCCCCCCCCNCC(=O)N(C)[C@@H]1C(=O)N[C@@H](C)C(=O)N[C@H](C(=O)N[C@@H](C)C(C)=O)Cc2ccc(OCCN)c(c2)-c2cc1ccc2OCCN.O=CO [Compound 269] | – | – | – | – | – | MIC (μg/mL) (COL) (MRSA COL (NRS100); [5]): 0.13 µg/mL; MIC (μg/mL) E. coli ([1]; 35° C., 22 hours): >4 µg/mL; MIC (μg/mL) S. aureus [2, 5]: 0.38 µg/mL
14 | C[C@@H]1NC(=O)[C@@H](N(C)C(=O)[C@H](CCCCN)NC(=O)c2ccc(-c3ccc(Cl)cc3)cc2)c2ccc(O)c(c2)-c2cc(ccc2O)C[C@@H](C(=O)NC/C=C/S(C)(=O)=O)NC1=O [Compound 236] | – | > 64 | – | 8 (≈ 9.16 µM) | 48 (≈ 55 µM) | –
15 | CCCCc1ccc(-c2ccc(C(=O)N[C@@H](CCCCN)C(=O)N(C)[C@@H]3C(=O)N[C@@H](C)C(=O)N[C@H](C(=O)NCc4nnn[nH]4)Cc4ccc(OCCN)c(c4)-c4cc3ccc4OCCN)cc2)cc1 [Compound 328] | – | – | – | 0.5 (≈ 0.529 µM) | 2 (≈ 2.12 µM) | MIC ([1]; read-out: MIC (μg/mL) E. coli): 0.25 µg/mL (≈ 0.265 µM)
16 | CCCCCCCCc1ccc(C(=O)N[C@@H](CCCN)C(=O)N(C)[C@@H]2C(=O)N[C@@H](C)C(=O)N[C@H](C(=O)NCB3O[C@@H]4C[C@@H]5C[C@@H](C5(C)C)[C@]4(C)O3)Cc3ccc(OCCN)c(c3)-c3cc2ccc3OCCN)cc1 [Compound 324] | – | – | – | 0.13 (≈ 0.127 µM) | 0.25 (≈ 0.245 µM) | MIC [1, 6]: 0.13 µg/mL (≈ 0.127 µM)
17 | CCCCCCCCCCNCCC(=O)N[C@@H](CCCCN)C(=O)N(C)[C@@H]1C(=O)N[C@@H](C)C(=O)N[C@H](C(=O)N[C@@H](C)C(=O)CO)Cc2ccc(O)c(c2)-c2cc1ccc2OCCN [Compound 201] | 0.063 (≈ 0.0715 µM) | 8 (≈ 9.08 µM) | 0.35 (≈ 0.397 µM) | – | – | –
18 | CCCCCCCCCCS(=O)(=O)N[C@@H](CCCCN)C(=O)N(C)[C@@H]1C(=O)N[C@@H](C)C(=O)N[C@H](C(=O)O)Cc2ccc(O)c(c2)-c2cc1ccc2O [Compound 222] | – | > 64 | – | 3 (≈ 4.02 µM) | 16 (≈ 21.4 µM) | –
19 | CCCCCCCCCCC(=O)N[C@@H](CCN)C(=O)N(C)[C@@H]1C(=O)N[C@@H](C)C(=O)N[C@H](C(=O)O)Cc2ccc(OCCN)c(c2)-c2cc1ccc2OCCN [Compound 305] | – | – | – | 0.38 (≈ 0.495 µM) | 1 (≈ 1.3 µM) | MIC [1, 6]: 0.13 µg/mL (≈ 0.169 µM)
20 | CC(NC(=O)[C@@H]1Cc2ccc(O)c(c2)-c2cc(ccc2O)[C@H](N(C)C(=O)[C@H](CCCCN)NC(=O)c2ccc(-c3ccc(Cl)cc3)cc2)C(=O)N[C@@H](C)C(=O)N1)C(=O)c1ncccn1 (stereo partly drawn) [Compound 194] | 4 (≈ 4.5 µM) | 8 (≈ 8.99 µM) | 8 (≈ 8.99 µM) | – | – | –
21 | CCCCCCCCc1ccc(C(=O)N[C@@H](CO)C(=O)N(C)[C@@H]2C(=O)N[C@@H](C)C(=O)N[C@H](C(=O)O)Cc3ccc(OCCN)c(c3)-c3cc2ccc3OCCN)c(C)c1 [Compound 309] | – | – | – | 0.25 (≈ 0.306 µM) | 0.5 (≈ 0.612 µM) | MIC [1, 6]: 0.031 µg/mL (≈ 0.0379 µM)
22 | C[C@@H]1NC(=O)[C@@H](N(C)C(=O)[C@H](CCCCN)NC(=O)c2ccc(-c3ccc(Cl)cc3)cc2)c2ccc(O)c(c2)-c2cc(ccc2O)C[C@@H](C(=O)N[C@@H](C)/C=C/S(N)(=O)=O)NC1=O [Compound 249] | – | 48 (≈ 54 µM) | – | 16 (≈ 18 µM) | 32 (≈ 36 µM) | –
23 | CCCCCCCCCCNCCC(=O)N(C)[C@@H]1C(=O)N[C@@H](C)C(=O)N[C@H](C(=O)N[C@@H](C)C(C)=O)Cc2ccc(O)c(c2)-c2cc1ccc2O [Compound 196] | – | > 64 | – | 1 (≈ 1.44 µM) | 4 (≈ 5.76 µM) | –
24 | CNC(=O)CCC(=O)[C@H](C)NC(=O)[C@@H]1Cc2ccc(O)c(c2)-c2cc(ccc2O)[C@H](N(C)C(=O)[C@H](CCCCN)NC(=O)c2ccc(-c3ccc(Cl)cc3)cc2)C(=O)N[C@@H](C)C(=O)N1 [Compound 149] | 64 (≈ 71.4 µM) | 64 (≈ 71.4 µM) | > 64 | – | – | –
25 | C[C@@H]1NC(=O)[C@@H](N(C)C(=O)[C@H](CCCCN)NC(=O)c2ccc(-c3ccc(Cl)cc3)cc2)c2ccc(O)c(c2)-c2cc(ccc2O)C[C@@H](C(=O)N[C@@H](C)C(=O)N(C)[C@H]2CCNC2=O)NC1=O [Compound 136] | 2 (≈ 2.17 µM) | 16 (≈ 17.3 µM) | 8 (≈ 8.66 µM) | – | – | –
26 | C[C@@H]1NC(=O)[C@@H](N(C)C(=O)[C@H](CCCCN)NC(=O)c2ccccc2-c2ccc(Cl)cc2)c2ccc(OCCN)c(c2)-c2cc(ccc2OCCN)C[C@@H](C(=O)O)NC1=O [Compound 284] | – | – | – | > 4 | > 4 | MIC [1, 6]: > 4 µg/mL
27 | CCCCCCCCc1ccc(C(=O)N[C@@H](CCCN)C(=O)N(C)[C@@H]2C(=O)N[C@@H](C)C(=O)N[C@H](C(=O)NCB(O)O)Cc3ccc(OCCN)c(c3)-c3cc2ccc3OCCN)cc1 [Compound 326] | – | – | – | – | – | MIC (MRSA COL (NRS100); [5]): 0.13 µg/mL (≈ 0.147 µM); MIC [1, 6]: 0.19 µg/mL (≈ 0.214 µM); MIC [2, 5]: 0.25 µg/mL (≈ 0.282 µM)
28 | CC(=O)[C@H](C)NC(=O)[C@@H]1Cc2ccc(O)c(c2)-c2cc(cc3cc(CN)oc23)[C@H](N(C)C(=O)[C@H](CCCCN)NC(=O)c2ccc(-c3ccc(Cl)cc3)cc2)C(=O)N[C@@H](C)C(=O)N1 [Compound 212] | 0.5 (≈ 0.569 µM) | 5.7 (≈ 6.49 µM) | 2.5 (≈ 2.85 µM) | – | – | –
29 | C[C@@H]1NC(=O)[C@@H](N(C)C(=O)[C@H](CCCCN)NC(=O)c2ccc(-c3ccc(Cl)cc3)cc2)c2ccc(O)c(c2)-c2cc(ccc2O)C[C@@H](C(=O)N[C@@H](C)C(=O)C(=O)Nc2ccn[nH]2)NC1=O [Compound 227] | 2 (≈ 2.17 µM) | > 64 | 12 (≈ 13 µM) | – | – | –
